Measurements: publication PMC8151276, “An Integrated Approach toward NanoBRET Tracers for Analysis of GPCR Ligand Engagement” (Molecules, 2021)

Molecular target: T1, HTR6 (Homo sapiens, UniProt P50406)
T1 construct: purchased Promega (in-house HiBiT-GPCR construct library, NanoBRET)
Assay: NanoBRET screen HiBiT-HTR6 in HEK293
Type: binding
Procedure: Each tracer candidate was screened across the entire library of HiBiT-GPCR constructs using NanoBRET as the detection modality. As depicted in Figure 4A, the specificity of interactions was evaluated through decrease in BRET due to competitive displacement of a bound tracer by excess parental compound. Each tracer was analyzed for binding to each HiBiT-GPCR fusion in the absence and in the presence of competing parental compound. Briefly, HEK293 cells were transfected with HiBiT-GPCR constructs diluted into promoterless DNA to reduce expression and maximize translocation to the cell surface. Each tracer candidate was then screened at concentrations of 1 μM and 0.1 μM across cells expressing these fusions. Cells were treated for 1.5 h with tracer either alone or in the presence of 20 μM competing parental compound (i.e., control). BRET was measured upon addition of purified LgBiT and subsequent complementation with HiBiT genetically fused to a GPCR. The specificity of interactions was assessed through a decrease in BRET signal due to competitive displacement of the bound tracer. To further gauge the robustness of these interactions, the fold response over the control (i.e., BRETtracer/BRETcontrol) was calculated. We chose a 1.5-fold response, which translates to ≥7-fold signal over noise as the minimal threshold required to score an interaction as positive.
HiBiT-GPCR DNA constructs were diluted in 10 mM Tris pH 8 to a final concentration of 0.01 μg/μL, arrayed in 96-well plates and stored at −20 °C. For transfection, HEK293 cells were suspended in Opti-MEM (without phenol red) supplemented with 2% fetal bovine serum (Seradigm) and 100 units/mL penicillin–streptomycin (Gibco) at a final concentration of 220,000 cells/mL and dispensed into white 96-well plates at 90 μL/well. Subsequent transfections and screens were carried using an Agilent Bravo Automated Liquid Handling Platform. First, the 96-well HiBiT DNA arrays were diluted 25-fold in Opti-MEM (without serum or phenol red) to a final concentration of 0.0004 μg/μL and 20 μL of the diluted DNAs were transferred into new 96-well plates. Next, promoterless carrier DNA (1 μg/μL) was diluted 25-fold (0.04 μg/μL) and then dispensed into the diluted arrays at 20 μL/well. Following brief mixing, Viafect transfection reagent (Promega) diluted 16-fold into Opti-MEM was dispensed into the plates at 40 μL/well. After mixing by pipetting, plates were incubated for 10 min on the pipetting station deck. The DNA-transfection reagent complexes were then added to plates containing cells. To facilitate the screen, 10 μL of DNA-transfection reagent complexes were added in duplicates to the top 4 and bottom 4 rows, resulting in two identical 48-well arrays per plate. Plates with transfected cells were incubated for 18–20 h at 37 °C/5% CO2. A screen of each tracer across the entire library using two different concentrations requires duplicate plates of transfected cells. Depending on the number of tracers being screened, transfections can be scaled up using the same ratios. The next day, for each tracer, four 20× screening solutions in tracer dilution buffer (Promega) were prepared: two duplicates at final concentration of 20 μM and two duplicates at a final concentration of 2 μM. […] The four resulting solutions were diluted 4-fold in Opti-MEM without serum or phenol red to generate 5× solutions (5 µM and 0.5 µM tracer +/− 100 μM competing compound). To screen the library, a BioTek MultiFlo FX liquid dispenser was used to dispense 22.5 µL of tracer solution to the top 4 rows and 22.5 µL tracer + competing compound solution to the 4 bottom rows. Plates were briefly mixed on an orbital shaker and incubated for 1.5 h at room temperature. […] Plates were briefly mixed on an orbital shaker and incubated for 15 min to allow complementation.

T1 sequence (P50406 whole entry): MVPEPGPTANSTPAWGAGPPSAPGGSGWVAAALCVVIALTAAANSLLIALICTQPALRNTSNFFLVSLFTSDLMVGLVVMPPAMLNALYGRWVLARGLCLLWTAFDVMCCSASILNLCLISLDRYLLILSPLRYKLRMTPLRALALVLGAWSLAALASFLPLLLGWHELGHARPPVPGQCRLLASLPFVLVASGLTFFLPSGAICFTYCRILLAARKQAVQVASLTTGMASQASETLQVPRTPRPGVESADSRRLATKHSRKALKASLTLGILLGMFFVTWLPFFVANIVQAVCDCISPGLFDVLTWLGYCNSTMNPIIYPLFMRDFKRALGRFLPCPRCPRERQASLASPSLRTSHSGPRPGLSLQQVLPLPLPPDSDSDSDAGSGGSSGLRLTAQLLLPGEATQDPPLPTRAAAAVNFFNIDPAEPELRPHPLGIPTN

SMILES | NanoBRET Fold Response (HTR6, tracer 0.1μM) | NanoBRET Fold Response (HTR6, tracer 1μM) | further results
CN(C)CCC=C1c2ccccc2CCc2ccc(C(=O)NCCNC(=O)CCOCCOCCOCCOCCNC(=O)CCc3ccc4n3[B-](F)(F)[N+]3=C(c5ccc[nH]5)C=CC3=C4)cc21 [Amitriptyline-b-2-NB590] | – | – | NanoBRET Fold Response (tracer at 0.1μM, listed as amitriptyline-b-2-NB590): 1.11; NanoBRET Fold Response (tracer at 1μM, listed as amitriptyline-b-2-NB590): 1.11
CCOC(=O)c1cc(C#N)c(N2CCC(C(=O)NS(=O)(=O)Cc3ccccc3/C=C/C(=O)NCCNC(=O)CCc3ccc4n3[B-](F)(F)[N+]3=C(c5ccc[nH]5)C=CC3=C4)CC2)nc1C [AZD1283-1-NB590] | – | – | NanoBRET Fold Response (HTR6, 0.1μM): 1.05; NanoBRET Fold Response (HTR6, 1μM): 1.07
CC(C)N(CC[C@H](c1ccccc1)c1cc(CCNC(=O)CCOCCOCCOCCOCCNC(=O)CCc2ccc3n2[B-](F)(F)[N+]2=C(c4ccc[nH]4)C=CC2=C3)ccc1O)C(C)C [Tolterodine-2-NB590] | 0.89 | 0.96 | –
CC(C)N(CC[C@H](c1ccccc1)c1cc(CCNC(=O)c2ccc(CNC(=O)CCc3ccc4n3[B-](F)(F)[N+]3=C(c5ccc[nH]5)C=CC3=C4)cc2)ccc1O)C(C)C [Tolterodine-BZ-NB590] | 0.96 | 1.05 | –
O=C(CCOCCOCCOCCOCCNC(=O)CCc1ccc2n1[B-](F)(F)[N+]1=C(c3ccc[nH]3)C=CC1=C2)NCCCN1CCN(C2=Nc3ccccc3Oc3ccc(Cl)cc32)CC1 [Loxapine-a-2-NB590] | 1.04 | 1.21 | –
CN(C)CCC=C1c2ccccc2CCc2ccc(C(=O)NCCNC(=O)CCOCCOCCOCCOCCNC(=O)CCc3ccc4n3[B-](F)(F)[N+]3=C(c5ccc[nH]5)C=CC3=C4)cc21 [Amitriptyline-a-2-NB590] | – | – | NanoBRET Fold Response (tracer at 0.1μM): 0.98; NanoBRET Fold Response (tracer at 1μM): 0.97
Cc1nc2n(c(=O)c1CCN1CCC(c3noc4cc(F)ccc34)CC1)CCCC2OC(=O)NCCOCCOCCOCCOCCNC(=O)CCc1ccc2n1[B-](F)(F)[N+]1=C(c3ccc[nH]3)C=CC1=C2 (stereo not drawn) [Risperidone-2-NB590] | 1.00 | 1.34 | –
COc1ccc2[nH]c(-c3ccc(CNC(=O)CCOCCOCCOCCOCCNC(=O)CCc4ccc5n4[B-](F)(F)[N+]4=C(c6ccc[nH]6)C=CC4=C5)cc3)c(CCNC(C)=O)c2n1 [AzomelatoninICO9-2-NB590] | – | – | NanoBRET Fold Response (0.1μM tracer): 0.97; NanoBRET Fold Response (1μM tracer): 0.95
COc1ccccc1N1CCN(CCCCN2C(=O)c3ccc(CNC(=O)CCOCCOCCOCCOCCNC(=O)CCc4ccc5n4[B-](F)(F)[N+]4=C(c6ccc[nH]6)C=CC4=C5)cc3C2=O)CC1 [NAN-190-2-NB590] | 0.99 | 1.04 | –
O=C(CCc1ccc2n1[B-](F)(F)[N+]1=C(c3ccc[nH]3)C=CC1=C2)NCCOCCOCCNC(=O)OCCOCCN1CCN(C2=Nc3ccccc3Sc3ccccc32)CC1 [Quetiapine-a-2-NB590] | 0.90 | 0.98 | –
O=C(CCOCCOCCOCCOCCNC(=O)CCc1ccc2n1[B-](F)(F)[N+]1=C(c3ccc[nH]3)C=CC1=C2)NCCCN1CCN(C2=Nc3cc(Cl)ccc3Nc3ccccc32)CC1 [Clozapine-a-2-NB590] | – | – | NanoBRET Fold Response (HTR6, 0.1μM tracer): 1.49; NanoBRET Fold Response (HTR6, 1μM tracer): 2.05
N#CN=C(NCCCOc1cccc(CN2CCCCC2)c1)NCCNC(=O)CCOCCOCCOCCOCCNC(=O)CCc1ccc2n1[B-](F)(F)[N+]1=C(c3ccc[nH]3)C=CC1=C2 [Aminopotentidine-2-NB590] | 0.99 | 1.03 | –
O=C(CCc1ccc2n1[B-](F)(F)[N+]1=C(c3ccc[nH]3)C=CC1=C2)NCc1ccc(C(=O)NCCOCCOCCNCC(O)COc2cccc3ccccc23)cc1 (stereo not drawn) [Propranolol-3-NB590] | – | – | NanoBRET Fold Response (HTR6, 0.1μM): 1.10; NanoBRET Fold Response (HTR6, 1μM): 1.14
O=C(CCc1ccc2n1[B-](F)(F)[N+]1=C(c3ccc[nH]3)C=CC1=C2)NCc1ccc(C(=O)NCCOCCC(=O)N[C@@H]2CC[C@@]3(O)[C@H]4Cc5ccc(O)c6c5[C@@]3(CCN4CC3CC3)[C@H]2O6)cc1 [Naltrexone-3-NB590] | 0.77 | 0.95 | –
COc1ccccc1N1CCN(CCCCN2C(=O)c3ccc(CNC(=O)CCOCCNC(=O)c4ccc(CNC(=O)CCc5ccc6n5[B-](F)(F)[N+]5=C(c7ccc[nH]7)C=CC5=C6)cc4)cc3C2=O)CC1 [NAN-190-3-NB590] | 0.94 | 1.19 | –
Cc1cc2c(s1)Nc1ccccc1N=C2N1CCN(CCCNC(=O)CCOCCOCCOCCOCCNC(=O)CCc2ccc3n2[B-](F)(F)[N+]2=C(c4ccc[nH]4)C=CC2=C3)CC1 [Olanzapine-a-2-NB590] | 1.09 | 1.15 | –
CCCn1c(=O)c2[nH]c(-c3ccc(OCC(=O)NCCNC(=O)CCOCCNC(=O)c4ccc(CNC(=O)CCc5ccc6n5[B-](F)(F)[N+]5=C(c7ccc[nH]7)C=CC5=C6)cc4)cc3)nc2n(CCC)c1=O [XAC-3-NB590] | 0.97 | 0.93 | –
N#CN/C(=N\CCNC(=O)c1ccc(N)cc1)NCCCOc1cccc(CN2CCCCC2)c1 [Aminopotentidine (unmodified)] | – | – | NanoBRET Fold Response (HTR6, other tracers/Aminopotentidine (unmodified), 0.1μM): 1.03; NanoBRET Fold Response (HTR6, other tracers/Aminopotentidine (unmodified), 1μM): 1.38
CN(CCC=C1c2ccccc2CCc2ccccc21)C(=O)CCOCCOCCOCCOCCNC(=O)CCc1ccc2n1[B-](F)(F)[N+]1=C(c3ccc[nH]3)C=CC1=C2 [Amitriptyline-e-2-NB590] | – | – | NanoBRET Fold Response (tracer at 1μM): 1.01
COc1ccc2c(n1)c(CCNC(C)=O)cn2CCNC(=O)CCc1ccc2n1[B-](F)(F)[N+]1=C(c3ccc[nH]3)C=CC1=C2 [Azamelatonin-1-NB590] | – | – | NanoBRET Fold Response (0.1μM tracer): 0.87; NanoBRET Fold Response (1μM tracer): 0.87
